# Experimental data from ChEMBL document CHEMBL5728714, “Aryl heterocyclic piperidinone formyl peptide 2 receptor and formyl peptide 1 receptor agonists” (2021).
# Molecular target: T1, N-formyl peptide receptor 2 (Homo sapiens, UniProt P25090)
# T1 sequence (P25090 whole entry): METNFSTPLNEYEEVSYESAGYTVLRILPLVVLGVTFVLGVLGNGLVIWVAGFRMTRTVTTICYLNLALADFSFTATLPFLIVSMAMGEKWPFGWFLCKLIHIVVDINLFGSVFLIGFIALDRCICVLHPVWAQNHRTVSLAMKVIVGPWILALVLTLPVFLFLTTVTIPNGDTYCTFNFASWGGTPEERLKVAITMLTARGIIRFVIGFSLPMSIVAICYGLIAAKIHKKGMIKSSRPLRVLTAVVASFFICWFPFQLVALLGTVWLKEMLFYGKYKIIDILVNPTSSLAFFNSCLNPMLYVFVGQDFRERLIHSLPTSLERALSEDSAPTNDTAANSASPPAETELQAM
# Experiment: FPR2 and FPR1 Cyclic Adenosine Monophosphate (cAMP) Assays: A mixture of forskolin (5 μM final for FPR2 or 10 μM final for FPR1) and IBMX (200 μM final) were added to 384-well Proxiplates (Perkin-Elmer) pre-dotted with test compounds in DMSO (1% final) at final concentrations in the range of 1.7 nM to 100 μM. Chinese Hamster Ovary cells (CHO) overexpressing human FPR1 or human FPR2 receptors were cultured in F-12 (Ham's) medium supplemented with 10% qualified FBS, 250 μg/ml zeocin and 300 μg/ml hygromycin (Life Technologies). Reactions were initiated by adding 2,000 human FPR2 cells per well or 4,000 human FPR1 cells per well in Dulbecco's PBS (with calcium and magnesium) (Life Technologies) supplemented with 0.1% BSA (Perkin-Elmer). The reaction mixtures were incubated for 30 min at room temperature. The level of intracellular cAMP was determined using the HTRF HiRange cAMP assay reagent kit (Cisbio) according to manufacturer's instruction. Solutions of cryptate conjugated anti-cAMP and d2 flurorophore-labelled cAMP were made in a supplied lysis buffer separately. Upon completion of the reaction, the cells were lysed with equal volume of the d2-cAMP solution and anti-cAMP solution. After a 1-h room temperature incubation, time-resolved fluorescence intensity was measured using the Envision (Perkin-Elmer) at 400 nm excitation and dual emission at 590 nm and 665 nm. […]
# Type: cell-based
row,EC50,SMILES
1,< 0.01 µM,O=C(Nc1cnc(Cl)cn1)N[C@@H]1CCCN(c2ccc(C3(CN4CCOCC4)CC3)cc2)C1=O
2,< 0.01 µM,O=C(Nc1ccc(C(F)(F)F)cc1)N[C@@H]1CCCN(c2ccc(C3CCOCC3)cc2)C1=O
